Measurements reported in PMC6409614, “BmTudor-sn Is a Binding Protein of Destruxin A in Silkworm Bm12 Cells” (Toxins, 2019).
Non-standard residues stand in square brackets, D forms with d. Residues, ends and D or L forms follow the SMILES beside them. dLac(3-vinyl) = C=CC[C@@H](O)C(=O)O; NMeV = CN[C@H](C(=O)O)C(C)C; NMeA = CN[C@@H](C)C(=O)O; βAla = NCCC(=O)O

What was measured:
[1] = cited from earlier work
Description: (§1) DA has been previously reported to play a role in immune related pathways and in inducing the immunosuppression phenotype in insects. The majority of studies have focused on these roles, while few have addressed the mechanism of action in cells. […] Tudor-sn, a multifunctional protein, was reported to regulate do ...

V-ATPase = conditions: silkworm hemocytes; earlier work of the authors, no reference given; cited from earlier work
Description: as §1

BmTudor-sn [2] = biological target: T1, BmTudor-sn (Bombyx mori, UniProt D9N4J4); assay: bio-layer interferometry (ForteBio OctetQK), protein immobilised on biosensor; format: binding
T1 construct: gene Tudor-SN; endogenous protein in Bm12 cells (CETSA); four staphylococcal nuclease domains and a Tudor domain
T1 sequence (D9N4J4 1-888): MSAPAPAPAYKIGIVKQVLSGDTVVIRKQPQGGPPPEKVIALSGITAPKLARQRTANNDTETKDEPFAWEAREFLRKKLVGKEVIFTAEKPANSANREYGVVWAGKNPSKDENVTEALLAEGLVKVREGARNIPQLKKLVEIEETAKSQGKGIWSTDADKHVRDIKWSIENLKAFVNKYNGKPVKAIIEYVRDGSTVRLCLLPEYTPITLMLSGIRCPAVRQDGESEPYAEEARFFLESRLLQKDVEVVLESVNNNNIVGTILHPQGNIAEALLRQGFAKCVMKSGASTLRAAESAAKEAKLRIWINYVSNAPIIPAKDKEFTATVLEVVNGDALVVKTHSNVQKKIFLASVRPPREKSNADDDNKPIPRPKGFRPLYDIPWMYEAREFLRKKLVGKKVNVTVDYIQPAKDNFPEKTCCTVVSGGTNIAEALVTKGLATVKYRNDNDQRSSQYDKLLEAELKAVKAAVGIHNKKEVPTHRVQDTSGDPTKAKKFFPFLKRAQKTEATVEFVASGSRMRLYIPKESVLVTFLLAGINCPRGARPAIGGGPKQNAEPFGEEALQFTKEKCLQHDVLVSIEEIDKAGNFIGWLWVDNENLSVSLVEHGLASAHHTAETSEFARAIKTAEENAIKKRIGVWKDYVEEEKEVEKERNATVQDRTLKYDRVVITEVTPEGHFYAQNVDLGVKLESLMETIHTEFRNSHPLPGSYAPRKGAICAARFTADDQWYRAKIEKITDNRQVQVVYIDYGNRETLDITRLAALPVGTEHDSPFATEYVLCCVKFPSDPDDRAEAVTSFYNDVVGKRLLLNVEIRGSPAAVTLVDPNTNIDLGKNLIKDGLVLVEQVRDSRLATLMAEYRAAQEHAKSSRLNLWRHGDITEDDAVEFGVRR

BmTudor-sn [3] = biological target: T1, BmTudor-sn; assay: cellular thermal shift assay (CETSA), western blot, endogenous protein in Bm12 cells; format: cell-based; conditions: 200 µg/mL DA; intact Bm12 cells heated at 37–58 °C
BmTudor-sn [4] = assay: Bio-Layer Interferometry (BLI), BmTudor-sn; format: binding, Bombyx mori; conditions: PBST (0.05% Tween20, 5% DMSO)
Procedure: (§2) All proteins were prepared by eukaryotic expression in the Sf9 cell line. These were tagged with His-tag and purified by nickel affinity chromatography. BLI analysis was performed on a ForteBio OctetQK System (K2, Pall Fortebio Corp, Menlo Park, CA, USA). Generally, the protein samples were coupled with a biosensor for immobilization. Serial not gradient dilutions of DA (500, 250, 125, 62.5, 31.25, 15.63, and 7.813 μM) were used for treatment. PBST buffer (0.05% Tween20, 5% DMSO) was used for the reference and dilution buffers. The working procedure was baseline for 60 s, association for 60 s, and dissociation for 60 s. Finally, the raw data were processed with Data Analysis Software (9.0, Pall Fortebio Corp, Menlo Park, CA, USA).

BmPiwi [5] = assay: Bio-Layer Interferometry (BLI), BmPiwi; format: binding, Bombyx mori; conditions: recombinant protein from Sf9 cells, DA 7.813-500 μM
Procedure: as §2

BmAGO2 [6] = assay: Bio-Layer Interferometry (BLI), BmAGO2; format: binding, Bombyx mori; conditions: recombinant protein from Sf9 cells, DA 7.813-500 μM
Procedure: as §2

BmTudor-sn [7] = assay: Immunoblot after proteolysis, BmTudor-sn; format: cell-based, Bombyx mori; conditions: Bm12 cell extracts from different DA treatments, proteinase K, western blot
Procedure: (§3) The Bm12 cell line was used to conduct the CETSA and immunoblot experiments. Cells were treated with DA. For immunoblotting, cell extracts from different DA treatments, collected after incubation with RIPA lysis buffer, were digested with proteinase K and then heated in water at 90 °C for 5 min. Samples were analyzed using SDS-PAGE and transferred to PVDF membranes. The membranes were then incubated in skim milk powder, followed by incubation with primary and HRP antibodies. ECL was added to the chemiluminescence reaction. For CETSA, Bm12 cells, treated with 200 µg/mL DA, were divided into 8 aliquots, heated at 37–58 °C, and lysed by a freeze-thaw cycle. The supernatants of the lysed cells were used for the western blot analysis as described above.

BmTudor-sn [8] = assay: Cellular thermal shift assay (CETSA), BmTudor-sn; format: cell-based, Bombyx mori; conditions: Bm12 cells
Procedure: as §3

BmPiwi [9] = assay: Cellular thermal shift assay (CETSA), BmPiwi; format: cell-based, Bombyx mori; conditions: Bm12 cells, DA 200 µg/mL, 37–58 °C, freeze-thaw lysis, western blot of supernatant
Procedure: as §3

BmAGO2 [10] = assay: Cellular thermal shift assay (CETSA), BmAGO2; format: cell-based, Bombyx mori; conditions: Bm12 cells, DA 200 µg/mL, 37–58 °C, freeze-thaw lysis, western blot of supernatant
Procedure: as §3

Bm12 cells = assay: RNAi and viability assessment under DA treatment; format: cell-based, silkworm (Bombyx mori)
Procedure: SiRNAs were prepared by synthesis in vitro. The sequence of BmTudor-sn siRNA is 5ʹ-[…]-3ʹ and 5ʹ-[…]-3ʹ. SiRNA and FuGENE transfection reagent were each diluted in serum-free medium and then mixed. The mixture was added to Bm12 cells after the DA treatment. Viability and toxicity assessment were performed following the manufacturer’s instructions.

BmTudor-sn with BmAGO1 = assay: Insect two-hybrid (I2H), interaction of BmTudor-sn and mutants with BmAGO1; format: cell-based, Bombyx mori; conditions: Sf9 cells, luciferase; for mutants with signal different from wild type: p < 0.05, DMRT
Procedure: BmTudor-sn and mutants were cloned into the I2H vector pIE-AD, and BmAGO1 was cloned into the I2H vector pIE-DBD using the Gateway system. These vectors and the luciferase vector were co-transfected into the Sf9 cell line and treated with DA at 0.02 and 0.2 µg/mL. The luciferase activities in the cell extracts were determined using a Luciferase Reporter Assay System (Promega, Beijing, China) and Synergy™ H1 (BioTek, Winooski, VT, USA).

BmTudor-sn [11] = assay: Transcriptional level of BmTudor-sn; format: cell-based, Bombyx mori; conditions: by DA; method not described
BmPiwi [12] = assay: Transcriptional level of BmPiwi; format: cell-based, Bombyx mori; conditions: by DA; method not described
BmAGO2 [13] = assay: Transcriptional level of BmAGO2; format: cell-based, Bombyx mori; conditions: by DA; method not described
BmTudor-sn [14] = conditions: Bm12 cells; specific proteinase; earlier DARTS analysis of the authors; reference not given; cited from earlier work
Description: Molecular docking is a reasonable, efficient, and convenient strategy to narrow down candidates among all proteins compared to other methods such as heterologous expression and kinetic analysis, which require verification one by one. However, it seems paradoxical in this study that proteins with the top docking scores were not the binding protein [24]. Actually, docking is a completely theoretical speculation, and other experiments are required to draw a conclusion. H ...

HSP = conditions: in vitro molecular interaction validation; cited from earlier work
Description: (§4) Destruxins are cyclodepsipeptidic mycotoxins, and there are 39 analogues. […] Because of the immunosuppression activity of DA in insects, the majority of studies have focused on the mechanism of action of the effect of DA on the immune-related pathway or st ...

[15] = system: heat shock proteins (HSPs); conditions: cultured cells (Bm12), DARTS; cited from earlier work
Description: as §4

insects = conditions: cited from earlier work
Description: as §4

[16] = DA 0.02 or 0.2 µg/mL, by mutant site

Destruxin B [DB]
anti-cancer activity [1]: clear anti-cancer activity | sensitivity to V-ATPase compared with DA (V-ATPase): more sensitive to V-ATPase than DA in silkworm hemocytes

C=CC[C@H]1OC(=O)CCNC(=O)[C@H](C)N(C)C(=O)[C@H](C(C)C)N(C)C(=O)[C@H]([C@@H](C)CC)NC(=O)[C@@H]2CCCN2C1=O [DA, Destruxin A] (cyclo([dLac(3-vinyl)]PI[NMeV][NMeA][βAla])) [listing 1 of 2 here]
Kd (BmTudor-sn [2]): 587 µM | thermal stability shift (BmTudor-sn [3]): the thermal stability of BmTudor-sn increased following DA binding modification

C=CC[C@H]1OC(=O)CCNC(=O)[C@H](C)N(C)C(=O)[C@H](C(C)C)N(C)C(=O)[C@H]([C@@H](C)CC)NC(=O)[C@@H]2CCCN2C1=O [DA, Destruxin A] (cyclo([dLac(3-vinyl)]PI[NMeV][NMeA][βAla])) [listing 2 of 2 here]
Kd (BmTudor-sn [4]; BLI, ForteBio OctetQK, His-tagged recombinant protein from Sf9 cells immobilized, association 60 s, dissociation 60 s, DA 7.813-500 μM, read-out: affinity constant KD): 587 µM | interaction with DA (BmTudor-sn [4]; BLI, DA 125, 250 and 500 µM): interacts with BmTudor-sn at concentrations of 125 µm, 250 µm, and 500 µm | BLI Response (BmTudor-sn [4]; DA 7.81 uM): -0.0024 | BLI Response (BmTudor-sn [4]; DA 15.6 uM): -0.0035 | BLI Response (BmTudor-sn [4]; DA 31.3 uM): -0.0012 | BLI Response (BmTudor-sn [4]; DA 62.5 uM): 0.0001 | BLI Response (BmTudor-sn [4]; DA 125 uM): 0.0032 | BLI Response (BmTudor-sn [4]; DA 250 uM): 0.0086 | BLI Response (BmTudor-sn [4]; DA 500 uM): 0.0071 | interaction with DA (BmPiwi [5]): not BmPiwi or BmAGO2 | interaction with DA (BmAGO2 [6]): not BmPiwi or BmAGO2 | protein stability under proteolysis (immunoblot) (BmTudor-sn [7]): stable with DA treatment in a dosage-dependent manner under proteolysis | thermal stability (CETSA), dose dependence (BmTudor-sn [8]; 200 µg/mL versus lower dose): BmTudor-sn showed thermal stability with the 200 µg/mL treatment and not at the lower dose | thermal stability (CETSA) (BmTudor-sn [8]; DA 200 µg/mL, 37–58 °C, freeze-thaw lysis, western blot of supernatant): thermal stability of BmTudor-sn increased following DA binding modification | thermal stability shift (CETSA) (BmPiwi [9]): no thermal stability shift in BmPiwi and BmAGO2 | thermal stability shift (CETSA) (BmAGO2 [10]): no thermal stability shift in BmPiwi and BmAGO2 | viability of BmTudor-sn knock down cells (Bm12 cells; Bm12 cells under DA treatment, * p < 0.05, t test): higher viability under DA treatment | increase in viability with BmTudor-sn knockdown (Bm12 cells; Bm12 cells, BmTudor-sn siRNA, DA treatment): approximately 20% | mutants with signal different from wild type (BmTudor-sn with BmAGO1; DA 0.02 µg/mL): 2 mutants, Ser707Ala and leu704Ala | mutants with signal different from wild type (BmTudor-sn with BmAGO1; DA 0.2 µg/mL): 3 mutants, Ser701Ala, Leu704Ala, and Tyr708Ala | domain of differing mutants (BmTudor-sn with BmAGO1; DA 0.02 and 0.2 µg/mL): in the Tudor domain (Ser707, Leu704, Ser701, Tyr708) rather than the SN3 (Lys492) and SN4 (Lys582) domains | interaction site at both concentrations (BmTudor-sn with BmAGO1; DA 0.02 and 0.2 µg/mL): interacts with BmTudor-sn at both concentrations at Leu704 | effect on BmTudor-sn/BmAGO1 pair interaction, impeded (BmTudor-sn with BmAGO1; [16]): impeded the protein pair interaction at Ser707 and Tyr708 | effect on BmTudor-sn/BmAGO1 pair interaction, promoted (BmTudor-sn with BmAGO1; [16]): promoted it at Leu704 and Ser701 | upregulation at the transcriptional level (BmTudor-sn [11]): 2-3 fold | upregulation at the transcriptional level (BmPiwi [12]): 2-3 fold | upregulation at the transcriptional level (BmAGO2 [13]): 2-3 fold | appearance of BmTudor-sn in DARTS (BmTudor-sn [14]): only appeared in the 200 µg/mL treatment with a specific proteinase and not at the lower dosage and with other proteinases | binding to an HSP (HSP): binds to an HSP in vitro | induction of heat shock proteins [15]: greatly induced heat shock proteins (HSPs) in cultured cells | insecticidal effect and anti-immunity activity (insects): strong insecticidal effect and anti-immunity activity
